The record followed here is paper PMC4212247 (Neoplasia (New York, N.Y.), 2014).

Molecules are shown by their SMILES.

The experiment addresses p70 S6 kinase (S6K1) (Homo sapiens, UniProt P23443). In words: in vitro kinase assay with recombinant S6K1, peptide substrate and […] ATP. Format: biochemical.

p70 S6 kinase (S6K1), sequence (P23443 24-525): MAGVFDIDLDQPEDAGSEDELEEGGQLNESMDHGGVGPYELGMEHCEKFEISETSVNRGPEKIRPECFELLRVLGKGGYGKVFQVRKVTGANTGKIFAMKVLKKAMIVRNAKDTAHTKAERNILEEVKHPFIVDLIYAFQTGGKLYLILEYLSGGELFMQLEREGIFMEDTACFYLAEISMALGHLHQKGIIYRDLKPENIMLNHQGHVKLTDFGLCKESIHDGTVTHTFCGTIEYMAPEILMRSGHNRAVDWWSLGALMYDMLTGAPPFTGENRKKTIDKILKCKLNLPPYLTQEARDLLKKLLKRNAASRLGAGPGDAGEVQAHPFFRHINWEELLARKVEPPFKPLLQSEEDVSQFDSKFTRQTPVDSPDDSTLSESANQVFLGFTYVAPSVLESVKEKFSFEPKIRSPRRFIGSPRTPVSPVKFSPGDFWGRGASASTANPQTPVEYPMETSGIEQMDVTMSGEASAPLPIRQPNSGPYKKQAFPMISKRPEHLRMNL

As for `C/C(O)=C(\C#N)C(=O)Nc1ccc(C(F)(F)F)cc1` [A77 1726], the IC50 is around 80 µM.
In the case of `Cc1oncc1C(=O)Nc1ccc(C(F)(F)F)cc1` [leflunomide], the IC50 is around 55 µM.

The term IC50 denotes the concentration needed to halve the response being measured.
